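Five concentrations, 48 hours, 96-well plates. GI50 marks 50% less growth.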 Activity calls are given as the source filed them. Cut-off read from the data, not from the text of the source: active = GI50 up to about 1.1 µM and inactive = higher.
Columns and labels:
Experiment in all cases: NCI tumour cell line growth inhibition, 48 h
ACHN = test system: ACHN
SNB-19 = test system: SNB-19
PC-3 = test system: PC-3
OVCAR-8 = test system: OVCAR-8
UACC-62 = test system: UACC-62
CAKI-1 = test system: CAKI-1
MOLT-4 = test system: MOLT-4
MDA-N = test system: MDA-N
CCRF-CEM = test system: CCRF-CEM
SF-539 = test system: SF-539
NCI/ADR-RES = test system: NCI/ADR-RES
UO-31 = test system: UO-31
OVCAR-5 = test system: OVCAR-5
SK-MEL-2 = test system: SK-MEL-2
A498 = test system: A498
T47D = test system: T47D
SNB-75 = test system: SNB-75
HOP-92 = test system: HOP-92

Measured: GI50

COc1ccc(/C=N/n2c(C)n[nH]c2=O)c(OC)c1
inactive: ACHN > 100 µM | SNB-19 > 100 µM | PC-3 > 100 µM | OVCAR-8 > 100 µM | UACC-62 35.2 µM | CAKI-1 > 100 µM | MOLT-4 85.1 µM | MDA-N > 100 µM | CCRF-CEM > 100 µM | SF-539 > 100 µM | NCI/ADR-RES > 100 µM | UO-31 > 100 µM | OVCAR-5 > 100 µM | SK-MEL-2 > 100 µM | A498 57.9 µM | T47D > 100 µM | SNB-75 > 100 µM

COc1cc2c(cc1O)c(O)cc1c3cc(OC)c(OC)cc3c[n+](C)c21
inactive: ACHN 56.6 µM | SNB-19 1.13 µM | PC-3 > 78.2 µM | OVCAR-8 8.87 µM | UACC-62 4.34 µM | CAKI-1 > 54 µM | MOLT-4 2.86 µM | MDA-N 17.7 µM | CCRF-CEM 1.37 µM | SF-539 3.65 µM | NCI/ADR-RES > 85.9 µM | UO-31 53.5 µM | OVCAR-5 > 100 µM | SK-MEL-2 > 100 µM | A498 > 100 µM | T47D 1.45 µM | SNB-75 35.2 µM

O=c1cc(N2CCOCC2)[nH]c(=O)n1-c1cccc(Cl)c1
inactive: ACHN > 100 µM | SNB-19 > 100 µM | PC-3 > 100 µM | HOP-92 > 100 µM | OVCAR-8 > 100 µM | UACC-62 > 100 µM | CAKI-1 > 100 µM | MOLT-4 > 100 µM | MDA-N > 100 µM | CCRF-CEM > 100 µM | SF-539 > 100 µM | NCI/ADR-RES > 100 µM | OVCAR-5 > 100 µM | SK-MEL-2 > 100 µM | A498 32.4 µM | T47D > 100 µM | SNB-75 > 100 µM

COc1ccc2[nH]cc(C(=O)C(=O)NC34CC5CC(CC(C5)C3)C4)c2c1
inactive: ACHN 29.4 µM | SNB-19 53.5 µM | PC-3 38.3 µM | HOP-92 29.5 µM | OVCAR-8 35.6 µM | UACC-62 23.8 µM | CAKI-1 > 45.4 µM | MOLT-4 2.66 µM | MDA-N 84.7 µM | CCRF-CEM 9.48 µM | SF-539 14 µM | NCI/ADR-RES 55.2 µM | UO-31 > 100 µM | OVCAR-5 35.2 µM | SK-MEL-2 57.8 µM | A498 43.8 µM | T47D 54.1 µM | SNB-75 37.9 µM

CCCCCCCCCCCCCCCCOP(=O)(O)OP(=O)(O)OCC1OC(n2ccc(N)nc2=O)CC1O (centres undefined)
inactive: ACHN > 100 µM | SNB-19 > 100 µM | PC-3 > 100 µM | HOP-92 > 100 µM | OVCAR-8 > 100 µM | UACC-62 > 100 µM | CAKI-1 > 100 µM | MOLT-4 > 100 µM | MDA-N > 100 µM | CCRF-CEM > 100 µM | SF-539 > 100 µM | NCI/ADR-RES > 100 µM | UO-31 > 100 µM | OVCAR-5 > 100 µM | SK-MEL-2 > 100 µM | A498 > 100 µM | T47D > 100 µM | SNB-75 > 100 µM

CN(C)CCCNc1c2ccccc2[n+]([O-])c2ccccc12
inactive: ACHN 49.1 µM | PC-3 46.5 µM | HOP-92 36.5 µM | OVCAR-8 41.9 µM | UACC-62 > 100 µM | CAKI-1 49.4 µM | MOLT-4 42.4 µM | MDA-N 68.7 µM | CCRF-CEM 62.1 µM | SF-539 45.9 µM | NCI/ADR-RES > 100 µM | UO-31 34.5 µM | OVCAR-5 38.8 µM | SK-MEL-2 > 100 µM | A498 54.8 µM | T47D 78 µM | SNB-75 51.4 µM

Source: ChEMBL document CHEMBL1201862, “PubChem BioAssay data set” (2004)
